Measured values taken from the supplement of paper PMC13380429.

Tests used:
Conditions in all cases: 72 h
HepG2 [1] = test: relative viability EC50 (midpoint between 100% and the lowest measured viability); higher = less toxic
Vero E6 [2] = test: as above
Calu-3 [3] = test: as above
Caco-2 [4] = test: as above
U2OS [5] = test: as above
HepG2 [6] = test: drug sensitivity score (DSS) for viability; higher = more toxic; extreme values may be limits of the assay
Vero E6 [7] = test: as above
Calu-3 [8] = test: as above
Caco-2 [9] = test: as above
U2OS [10] = test: as above
HepG2 [11] = test: cell viability relative to DMSO; higher = less toxic
Vero E6 [12] = test: as above
Calu-3 [13] = test: as above
Caco-2 [14] = test: as above
U2OS [15] = test: as above

Row | Structure (SMILES) | relative viability EC50 (HepG2 [1]) | relative viability EC50 (Vero E6 [2]) | relative viability EC50 (Calu-3 [3]) | relative viability EC50 (Caco-2 [4]) | relative viability EC50 (U2OS [5]) | drug sensitivity score (HepG2 [6]) | drug sensitivity score (Vero E6 [7]) | drug sensitivity score (Calu-3 [8]) | drug sensitivity score (Caco-2 [9]) | drug sensitivity score (U2OS [10]) | cell viability (HepG2 [11]; 1 nM) | cell viability (HepG2 [11]; 10 nM) | cell viability (HepG2 [11]; 100 nM) | cell viability (HepG2 [11]; 1000 nM) | cell viability (HepG2 [11]; 10000 nM) | cell viability (Vero E6 [12]; 1 nM) | cell viability (Vero E6 [12]; 10 nM) | cell viability (Vero E6 [12]; 100 nM) | cell viability (Vero E6 [12]; 1000 nM) | cell viability (Vero E6 [12]; 10000 nM) | cell viability (Calu-3 [13]; 1 nM) | cell viability (Calu-3 [13]; 10 nM) | cell viability (Calu-3 [13]; 100 nM) | cell viability (Calu-3 [13]; 1000 nM) | cell viability (Calu-3 [13]; 10000 nM) | cell viability (Caco-2 [14]; 1 nM) | cell viability (Caco-2 [14]; 10 nM) | cell viability (Caco-2 [14]; 100 nM) | cell viability (Caco-2 [14]; 1000 nM) | cell viability (Caco-2 [14]; 10000 nM) | cell viability (U2OS [15]; 1 nM) | cell viability (U2OS [15]; 10 nM) | cell viability (U2OS [15]; 100 nM) | cell viability (U2OS [15]; 1000 nM) | cell viability (U2OS [15]; 10000 nM)
1 | Cc1ccc(C[N+](C)(C)C)o1 [5-methylfurmethiodide] | > 10 µM | > 10 µM | > 10 µM | > 10 µM | > 10 µM | 0 | 0 | 0 | 0 | 0 | 104% | 108% | 93.8% | 103% | 90.2% | 104% | 103% | 97.5% | 107% | 99.9% | 108% | 103% | 93.9% | 100% | 101% | 99.1% | 105% | 103% | 96.3% | 108% | 101% | 99.7% | 102% | 98.7% | 103%
2 | [N-]=[N+]=CC(=O)CC[C@H](N)C(=O)O [6-diazo-5-oxo-L-norleucine] | > 10 µM | > 10 µM | > 10 µM | > 10 µM | > 10 µM | 0 | 0 | 0 | 0 | 0 | 97% | 105% | 98.8% | 97.2% | 112% | 94.2% | 95.8% | 86.8% | 95.6% | 103% | 102% | 90.6% | 96.4% | 95.2% | 98.1% | 95.4% | 90% | 97.8% | 95.8% | 92.7% | 104% | 102% | 104% | 98.3% | 104%
3 | CCCCC/C=C\C/C=C\C/C=C\C/C=C\CCCC(=O)Nc1ccc(O)cc1 [AM-404] | > 10 µM | > 10 µM | > 10 µM | > 10 µM | > 10 µM | 0 | 0 | 0 | 0 | 0 | 110% | 104% | 93.9% | 107% | 87.6% | 105% | 106% | 92.9% | 102% | 96.5% | 104% | 93.1% | 96.8% | 99.1% | 102% | 95.3% | 98.2% | 103% | 100% | 95% | 96.9% | 95.2% | 100% | 93.8% | 96.3%
